From patent publication US20100286073A1, “COMPOUNDS AND METHODS FOR PHARMACEUTICAL USE” (priority 2007, published 2010)
“Also recorded” adds a separate entry of the source.

What was measured:
[1] = test system: human subjects diagnosed with fibromyalgia syndrome; test: Patient history of prior treatment of the fibromyalgia subjects (Examples 1-3); settings: for pain relief by prior OTC analgesics: codeine at low dose; for side effects of prior prescription analgesics / pain relief by prior prescription analgesics: codeine at high dose; for pain relief by prior prescription analgesics: at best
Excerpt: (§1) Patient History of Prior Treatment: A patient history was taken. Prior treatments targeting pain relief were as follows.
Prior treatments targeting other symptoms included the following. The subject had taken tegaserod for irritable bowel syndrome. Additional prior therapies included sertraline for depression, and zolpidem for insomnia. The subject has also taken proclorperazine for dizziness.
Prior treatments targeting other symptoms included the following. The subject had taken tegaserod for irritable bowel syndrome. Additional prior therapies included sertraline for depression, and zolpidem for insomnia.
as §1
Prior treatments targeting other symptoms included the following. The subject had taken tegaserod for irritable bowel syndrome. Additional prior therapies included zolpidem, midazolam, zopiclone, and chlorpheniramine for insomnia.

[2] = test system: human subjects diagnosed with fibromyalgia syndrome; test: Treatment of human subjects diagnosed with fibromyalgia with trimetazidine (Examples 1-4, clinical case reports); assay type: in vivo
Procedure: A person presented with long-standing complaints (15 years) of widespread pain—headaches, upper and lower back pain, neck pain, elbow and knee pain bilaterally, calf pain bilaterally and jaw pain. General non-specific symptoms were fatigue, symptoms of irritable bowel syndrome (constipation-type), insomnia, cognitive and memory impairment, morning stiffness, dizziness, irritability and depression.
Treatment Regime: The subject was administered trimetazidine (modified release formulation, Vastarel® MR), 35 mg orally, twice daily, originally for treatment of their cardiac condition.
Treatment Regime: The subject was administered trimetazidine (modified release formulation, Vastarel® MR), 35 mg orally, twice daily.
The following is a synopsis of the clinical response of each of eight (8) patients diagnosed with FMS, each of whom received treatment with trimetazidine MR (Vastarel® MR), 35 mg orally, twice daily, for a period of at least four (4) weeks.

[3] = target: long-chain isoform of 3-ketoacyl coenzyme A thiolase (3KCT) (Homo sapiens, UniProt P55084); settings: thereby reducing fatty acid oxidation; Kantor et al., Circ Res 2000; cited from earlier work
Sequence of long-chain isoform of 3-ketoacyl coenzyme A thiolase (3KCT) (P55084 34-474): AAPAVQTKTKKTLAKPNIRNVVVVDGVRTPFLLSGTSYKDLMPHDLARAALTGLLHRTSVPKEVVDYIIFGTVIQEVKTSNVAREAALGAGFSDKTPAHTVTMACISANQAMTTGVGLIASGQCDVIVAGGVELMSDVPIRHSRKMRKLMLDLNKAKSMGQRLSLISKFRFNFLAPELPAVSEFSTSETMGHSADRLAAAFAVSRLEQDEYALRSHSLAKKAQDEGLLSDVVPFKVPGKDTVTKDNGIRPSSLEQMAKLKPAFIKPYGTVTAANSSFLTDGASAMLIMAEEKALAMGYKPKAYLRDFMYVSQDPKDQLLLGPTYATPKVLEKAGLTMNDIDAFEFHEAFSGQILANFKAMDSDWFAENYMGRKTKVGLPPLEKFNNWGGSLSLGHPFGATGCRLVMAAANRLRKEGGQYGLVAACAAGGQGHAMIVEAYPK
Sequence of long-chain isoform of 3-ketoacyl coenzyme A thiolase (3KCT) (P40939 37-763 partner): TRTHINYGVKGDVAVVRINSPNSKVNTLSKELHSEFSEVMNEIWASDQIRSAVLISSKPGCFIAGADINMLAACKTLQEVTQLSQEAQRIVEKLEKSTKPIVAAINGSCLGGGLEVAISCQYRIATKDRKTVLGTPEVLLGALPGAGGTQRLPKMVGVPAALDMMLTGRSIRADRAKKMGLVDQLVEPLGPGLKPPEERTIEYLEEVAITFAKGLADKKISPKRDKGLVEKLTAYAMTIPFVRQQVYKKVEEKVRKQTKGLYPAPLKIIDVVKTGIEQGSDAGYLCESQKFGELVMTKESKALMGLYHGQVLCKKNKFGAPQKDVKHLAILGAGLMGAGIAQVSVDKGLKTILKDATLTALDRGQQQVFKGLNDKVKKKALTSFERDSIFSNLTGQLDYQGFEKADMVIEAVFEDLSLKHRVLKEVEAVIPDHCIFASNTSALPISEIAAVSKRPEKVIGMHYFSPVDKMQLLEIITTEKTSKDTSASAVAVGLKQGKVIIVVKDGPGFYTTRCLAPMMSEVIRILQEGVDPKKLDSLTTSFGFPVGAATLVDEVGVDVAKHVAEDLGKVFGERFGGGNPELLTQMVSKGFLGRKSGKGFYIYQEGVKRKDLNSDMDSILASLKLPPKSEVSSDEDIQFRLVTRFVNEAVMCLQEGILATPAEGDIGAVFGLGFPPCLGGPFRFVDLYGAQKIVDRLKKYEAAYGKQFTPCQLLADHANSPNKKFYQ

[4] = Examples 1-2, within 72 h (Ex. 1) or 24 h (Ex. 2) of starting 35 mg orally twice daily, patient-reported
[5] = Examples 1-3, within 72 h (Ex. 1) or 24 h (Ex. 2, 3) of starting 35 mg orally twice daily, patient-reported
[6] = Short Term i.e. within 72 hours, trimetazidine MR 35 mg orally twice daily, FMS patient, Example 4
[7] = Short Term i.e. within 72 hours, trimetazidine MR 35 mg orally twice daily, FMS patients, Example 4
[8] = after four (4) months of continuous use, 35 mg orally twice daily
[9] = examination after at least four weeks of trimetazidine MR 35 mg orally twice daily
[10] = examination after four weeks of trimetazidine MR 35 mg orally twice daily

## COc1ccc2c3c1O[C@H]1[C@@H](O)C=C[C@H]4[C@@H](C2)N(C)CC[C@@]341 [codeine]
[1]
  pain relief by prior OTC analgesics: no pain relief whatsoever; also recorded: negligible pain relief
  side effects of prior prescription analgesics: frequently accompanied by unpleasant side effects
  pain relief by prior prescription analgesics: mild to moderate and very temporary relief

## CCN(CC)CC(=O)Nc1c(C)cccc1C [lidocaine]
[1]; injections repeated at 2 to 4 week intervals, extremely painful procedures
  localized pain relief by prior trigger point injections: best localized pain relief

## CCOC(=O)C1(c2ccccc2)CCN(C)CC1 [meperidine]
[1]
  side effects of prior prescription analgesics: frequently accompanied by unpleasant side effects
  pain relief by prior prescription analgesics: mild to moderate and very temporary relief

## CC(=O)Nc1ccc(O)cc1 [paracetamol]
[1]
  pain relief by prior OTC analgesics: no pain relief whatsoever; also recorded: negligible pain relief

## COc1cccc(C2(O)CCCCC2CN(C)C)c1 (centres unmarked) [tramadol]
[1]
  side effects of prior prescription analgesics: frequently accompanied by unpleasant side effects
  pain relief by prior prescription analgesics: mild to moderate and very temporary relief

## COc1ccc(CN2CCNCC2)c(OC)c1OC [trimetazidine, 1-(2,3,4-trimethyloxybenzyl)piperazine]
[2]; Example 1, 35 mg orally twice daily
  time after commencing therapy at which benefits were first noticed: ≤ 24 h
[2]; Example 1, within 72 hours of starting 35 mg orally twice daily, patient-reported
  level of irritability: markedly reduced
[2]; [4]
  clarity of thoughts: markedly increased
  short and long term memory: improvement
[2]; [5]
  energy levels: very significantly increased
  mood: very improved
  regularity of bowel habits: markedly improved
  sleep patterns: very significantly improved
[2]; Examples 1-3, within 72 h (Ex. 1) or 24 h (Ex. 2, 3) of starting treatment
  residual pain after reduction of widespread pain: minimal residual pain reported at the left medial knee; also recorded: minimal residual pain reported at the left hip; also recorded: residual mild headache
[2]; Medium/Long Term, after five (5) or four (4) weeks of daily use
  sense of well-being: increased sense of
[2]; Medium/Long Term, after five (5) weeks of daily use, 35 mg orally twice daily, patient-reported
  sustained improvement of all symptoms: dramatic 95%
[2]; Medium/Long Term, after four (4) weeks of daily use
  energy levels: sustained increase
[2]; Medium/Long Term, after nine (9) weeks of daily use, 35 mg orally twice daily, patient-reported
  sustained improvement of symptoms: 90% sustained
[2]; Medium/Long Term, after seven (7) weeks of daily use, 35 mg orally twice daily, patient-reported
  sustained improvement of symptoms: dramatic 95%
[2]; Medium/Long Term, after six (6) weeks of daily use, 35 mg orally twice daily, patient-reported
  sustained improvement of symptoms: (95%) sustained
[2]; [6]
  Chest Pain: Absence of Chest
  Memory: Improved Memory
  Nausea: Absence of Nausea
  Nausea and Vomiting: Absence of Nausea
  nervousness: No Nervousness
  reduction in IBS and Acid Reflux Symptoms: 90% reduction in
  reduction in irritability: 90% reduction in
  reduction in severity of Pre-Menstrual Cramps: 70% reduction in
  reduction in symptoms of Irritable Bowel Syndrome: 90% reduction in
  symptoms of Irritable Bowel Syndrome: Markedly reduced
[2]; [7]
  alertness and clarity of thinking: Increased alertness
  dizziness/dizzy spells: Infrequent dizzy; also recorded: Absence of
  energy (feeling): Energetic feeling
  improved mood and concentration: Significantly
  improved mood and memory: Significantly
  reduction in widespread pain and trigger point pain: 90% reduction in
  sleep: Consistent restful
[2]; [8]
  quality of life at follow-up: same marked improvement
  relapse of symptoms at follow-up: no relapse
[2]; after six (6) months of continuous use, 35 mg orally twice daily
  quality of life at follow-up: same marked improvement
[2]; after six (6) months of continuous use, in reaction to stress or infections
  pain at trigger points at follow-up: infrequent episodes of pain
[2]; [9]
  EXAMINATION FINDINGS: affect: markedly improved
  EXAMINATION FINDINGS: resolution of trigger point tenderness: Sustained
[2]; [10]
  EXAMINATION FINDINGS: affect and energy levels: markedly improved
  EXAMINATION FINDINGS: improvement in physical appearance: obvious marked
[2]; examination after ten weeks of trimetazidine MR 35 mg orally twice daily
  EXAMINATION FINDINGS: improved energy levels: Markedly
[2]; within 24 hours of starting treatment, 35 mg orally twice daily
  improvement in all symptoms and signs of fibromyalgia: vast improvement
[2]; within 24 hours of starting treatment, trimetazidine MR 35 mg orally twice daily, FMS patient, patient-reported
  reduction in widespread pain: 95%
[2]; within 72 hours of starting treatment, 35 mg orally twice daily
  improvement in all symptoms and signs of fibromyalgia: vast improvement
[2]; within 72 hours of starting treatment, trimetazidine MR (Vastarel MR) 35 mg orally twice daily, FMS patient, patient-reported
  reduction in widespread pain: 90%
[2]; within 72 hours of starting treatment, trimetazidine MR (Vastarel MR) 35 mg orally twice daily, FMS patient, patient-reported, listed as Trimetazidine
  reduction in widespread pain: 90% reduction in
[3]
  effect on long-chain 3-ketoacyl coenzyme A thiolase (3KCT): inhibits
